Columns and labels:
[1] = target: T1, Phosphotyrosine protein phosphatase (Mycobacterium tuberculosis, UniProt A0A045ISB3); assay: Inhibition of Mycobacterium tuberculosis H37Ra PTPB expressed in Escherichia coli BL21 (DE3) using p-nitrophenyl phosphate as substrate preincubated for 10 mins followed by substrate addition and measured for 5 mins by spectrophotometric analysis
T1 sequence (A0A045ISB3 whole entry): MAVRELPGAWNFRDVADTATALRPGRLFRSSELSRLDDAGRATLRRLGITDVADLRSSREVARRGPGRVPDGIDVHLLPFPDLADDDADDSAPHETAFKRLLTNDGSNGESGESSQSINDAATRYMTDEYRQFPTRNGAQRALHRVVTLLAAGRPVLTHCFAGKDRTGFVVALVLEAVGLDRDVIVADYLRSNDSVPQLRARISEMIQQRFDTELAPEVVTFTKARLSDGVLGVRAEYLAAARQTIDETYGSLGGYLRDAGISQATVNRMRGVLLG

[2] = Cytotoxicity against mouse RAW264.7 cells assessed as reduction in cell viability by MTT assay; assay type: cell-based
RAW264.7 [3] = assay: Anti-inflammatory activity in mouse RAW264.7 cells assessed as inhibition of lipopolysaccharide-induced nitric oxide production incubated for 24 hrs coincubated with LPS by Griess reagent based assay; assay type: functional, cell-based; details: RAW264.7, 24 h
RAW264.7 [4] = assay: Anti-inflammatory activity in mouse RAW264.7 cells assessed as inhibition of lipopolysaccharide-induced nitric oxide production at 50 uM incubated for 24 hrs coincubated with LPS by Griess reagent based assay; assay type: functional; details: RAW264.7, 24 h
[5] = target: T1, Phosphotyrosine protein phosphatase; assay: Inhibition of Mycobacterium tuberculosis H37Ra PTPB using p-nitrophenyl phosphate as substrate

Row | Structure (SMILES) | IC50 [1] [µM] | CC50 [2] [µM] | IC50 (RAW264.7 [3]) [µM] | inhibition at 50 µM (RAW264.7 [4]) [%] | IC50 [5] [µM]
1 | CC(C)=C/C=C\[C@H](C)[C@H]1CC[C@]2(C)C[C@@H]3C(C)=CC(=O)[C@H]3/C(C=O)=C\C[C@@H]12 | > 50 | 3.8 | – | – | –
2 | CC(C)=C/C=C\[C@H](C)[C@H]1CC[C@]2(C)C[C@H]3[C@@H](C(=O)C[C@@]3(C)O)/C(C=O)=C\C[C@@H]12 | > 50 | 15 | – | – | –
3 | CC(C)=C/C=C\[C@H](C)[C@H]1CC[C@]2(C)CC3=C(C(=O)C[C@H]3C)/C(CO)=C\C[C@@H]12 | > 50 | > 50 | 14 | – | –
4 | CC(C)=C/C=C\[C@H](C)[C@H]1CC[C@]2(C)C[C@H]3[C@H](C(=O)C[C@@]3(C)O)/C(C=O)=C\C[C@@H]12 | > 50 | 4.8 | – | – | –
5 | CC1=CC(=O)[C@H]2/C(C=O)=C\C[C@H]3[C@@H]([C@@H](C)/C=C\[C@@H](O)C(C)(C)O)CC[C@]3(C)C[C@H]12 | > 50 | > 50 | > 50 | – | –
6 | CC(C)=C/C=C\[C@H](C)[C@H]1CC[C@]2(C)C[C@@H]3C(C)=CC(=O)[C@H]3/C(CO)=C\C[C@@H]12 | 37 | > 50 | 25 | – | –
7 | CC(C)=C/C=C\[C@H](C)[C@H]1CC[C@]2(C)C[C@H]3[C@@H]4/C(=C\C[C@@H]12)C(=O)O[C@]4(O)C[C@@]3(C)O | 36 | > 50 | > 50 | – | –
8 | CC(C)=C/C=C\[C@H](C)[C@H]1CC[C@]2(C)C[C@@H]3C(C)=CC(=O)[C@@H]3/C(C=O)=C\C[C@@H]12 | 24 | 21 | – | – | –
9 | CC(C)=C/C=C\[C@H](C)[C@H]1CC[C@]2(C)C[C@H]3[C@H]4/C(=C\C[C@@H]12)C(=O)O[C@H]4C[C@@]3(C)O | > 50 | 29 | – | – | –
10 | CC(C)=C/C=C\[C@H](C)[C@H]1CC[C@]2(C)C[C@H]3[C@@H]4/C(=C\C[C@@H]12)CO[C@]4(O)C[C@@]3(C)O | > 50 | 18 | – | – | –
11 | CC(C)=C/C=C\[C@H](C)[C@H]1CC[C@]2(C)C[C@@]3(O)[C@H](C)C[C@@H](O)[C@@H]3/C(C=O)=C\C[C@@H]12 | > 50 | > 50 | > 50 | – | –
12 | CC1=CC(=O)[C@@H]2/C(C=O)=C\C[C@H]3[C@@H]([C@@H](C)/C=C\[C@@H](O)C(C)(C)O)CC[C@]3(C)C[C@H]12 | > 50 | > 50 | > 50 | < 40 | –
13 | CO[C@]12C[C@@](C)(O)[C@H]3C[C@@]4(C)CC[C@H]([C@@H](C)/C=C\C=C(C)C)/C4=C/C=C(/C(=O)N1)[C@@H]32 | > 50 | > 50 | > 50 | – | –
14 | CC1=CC(=O)[C@@H]2/C(C=O)=C\C[C@H]3[C@@H]([C@@H](C)/C=C\[C@H](O)C(C)(C)O)CC[C@]3(C)C[C@H]12 | 19 | > 50 | 21 | – | –
15 | C[C@@H](/C=C\[C@H](O)C(C)(C)O)[C@H]1CC[C@]2(C)C[C@H]3[C@@H](C(=O)C[C@@]3(C)O)/C(C=O)=C\C[C@@H]12 | > 50 | > 50 | 16 | – | –
16 | CC1=CC(=O)[C@H]2/C(C=O)=C\C[C@H]3[C@@H]([C@@H](C)/C=C\[C@@H]4OC4(C)C)CC[C@]3(C)C[C@H]12 | 35 | > 50 | 24 | – | –
17 | CC(C)=C/C=C\[C@H](C)[C@H]1CC[C@]2(C)C[C@H]3[C@@H]4/C(=C\C=C\12)C(=O)N[C@@H]4C[C@@]3(C)O | > 50 | > 50 | > 50 | – | –
18 | CO[C@]12C[C@@](C)(O)[C@H]3C[C@@]4(C)CC[C@H]([C@@H](C)/C=C\C=C(C)C)[C@@H]4C/C=C(/C(=O)N1)[C@@H]32 | 42 | > 50 | 42 | – | –
19 | CC(C)=C/C=C\[C@H](C)[C@H]1CC[C@]2(C)C[C@H]3[C@H]4/C(=C\C[C@@H]12)CO[C@@]4(O)C[C@@]3(C)O | > 50 | 31 | – | – | –
20 | CC1=CC(=O)[C@H]2/C(C=O)=C\C[C@H]3[C@@H]([C@@H](C)/C=C\[C@H](O)C(C)(C)O)CC[C@]3(C)C[C@H]12 | > 50 | > 50 | 14 | – | –
21 | CC(C)=C/C=C\[C@H](C)[C@H]1CC[C@]2(C)C[C@H]3[C@@H]4/C(=C\C=C\12)C(=O)N[C@]4(O)C[C@@]3(C)O | 39 | > 50 | > 50 | – | –
22 | CC(C)=C/C=C\[C@H](C)[C@H]1CC[C@]2(C)C[C@H]3[C@@H](/C(C=O)=C\C[C@@H]12)[C@H](O)C[C@@]3(C)O | > 50 | > 50 | 9.6 | – | –
23 | CC(C)=C/C=C\[C@H](C)[C@H]1CC[C@]2(C)C[C@@H]3C(C)=CC(=O)[C@H]3/C(C(=O)O)=C\C[C@@H]12 | 28 | > 50 | > 50 | – | –
24 | CC(C)[C@H]1CC[C@@]2(C)CC[C@]3(CO)CC4=C(C(=O)O)CC[C@H]4[C@]4(C)C[C@@H]4[C@H]3[C@H]12 | – | – | – | – | 2.2
25 | COc1ccc2c(c1)c(CC(=O)O)c(C)n2C(=O)c1ccc(Cl)cc1 [INDOMETHACIN] | – | > 50 | 38 | – | –
